Converted amounts (≈) assume the structure as drawn.
Key:
C. albicans ATCC 44859 = assay: Test 1: In vitro antifungal activity against Candida albicans (suppression of mycelial type growth); format: cell-based; conditions: ATCC44859, minimum concentration permitting apparent suppression of mycerial type growth, 10% fetal bovine serum added MEM, 37° C., 20 hours, read-out: Terminal Point C. albicans
Experimental: Test 1: In vitro antifungal activity against Candida albicans
They were incubated at 37° C. for 20 hours in a CO2 gas incubator. After incubation, morphological change of C. albicans was observed under an inverted microscope.

A. fumigatus IFM 40808 = assay: Test 2: In vitro antifungal activity against Aspergillus fumigatus (MIC); format: cell-based; conditions: IFM40808, RPMI 1640 with 0.165M MOPS, pH 7, 35° C., 24 hours
Experimental: Test 2: In vitro antifungal activity against Aspergillus fumigatus
(§1) They were incubated at 35° C. for 24 hours.

A. flavus IFM 41935 = assay: Test 3: In vitro antifungal activity against Aspergillus flavus (MIC); format: cell-based; conditions: IFM41935, RPMI 1640 with 0.165M MOPS, pH 7, 35° C., 24 hours
Experimental: Test 3: In vitro antifungal activity against Aspergillus flavus
as §1

C. albicans IFM 40009 = assay: Test 4: In vivo antifungal activity against Candida albicans (survival of infected mice); set-up: species or system Candida albicans; male ICR (CRJ: CD-1) mouse; conditions: oral 1.25 mg/kg each, four times in total; for Mean survival days: 14 days after infection, vs. control ***: p < 0.001, **: p < 0.01; for Survival mice on 14-th day: survivors/mice of group
Experimental: Test 4: In vivo antifungal activity against Candida albicans
After 4-week-old, male, ICR (CRJ: CD-1) mouse was fasted for 6 hours, C. albicans IFM 40009 was inoculated to a tail vein of the mouse to give an amount of 3.0×10^6 cells/mouse, whereby infection was caused. A control group consisted of 8 mice, while a chemical-administered group consisted of 5 mice. The chemical was orally administered once an hour after the inoculation of the fungus and 24 hours after the inoculation, and once a day consecutively, four times in total, at 1.25 mg/kg each. The survival during 14 days after the infection was counted. In addition, the mean survival days of the control group and the mean survival days of the chemical-administered group were compared and statistically analyzed by the Kaplan-Meire method (Cox mantel test).

Compound	MIC (C. albicans ATCC 44859)	MIC (A. fumigatus IFM 40808)	MIC (A. flavus IFM 41935)	Mean survival days (C. albicans IFM 40009)	Survival mice on 14-th day (C. albicans IFM 40009)
CC(=O)OCCSC(F)(F)C(O)(Cn1cncn1)c1ccc(F)cc1F (stereo not drawn) [Example 14, 1-(2-acetoxyethyl)thio-2-(2,4-difluorophenyl)-1,1-difluoro-3-(1H-1,2,4-triazol-1-yl)propan-2-ol]	0.0313 µg/mL (≈ 0.0796 µM)	8 µg/mL (≈ 20.3 µM)	4 µg/mL (≈ 10.2 µM)	–	–
O=S(=O)(CCO)C(F)(F)C(O)(Cn1cncn1)c1ccc(F)cc1F (stereo not drawn) [Example 20, 2-(2,4-difluorophenyl)-1,1-difluoro-1-(2-hydroxyethyl)sulfonyl-3-(1H-1,2,4-triazol-1-yl)propan-2-ol]	–	–	–	14.0 days	5/5
OC(Cn1cncn1)(Cn1cncn1)c1ccc(F)cc1F [Fluconazole, reference compound]	0.25 µg/mL (≈ 0.816 µM)	> 128 µg/mL	> 128 µg/mL	9.6 days	0/5

More lines, main results first:

MIC (C. albicans ATCC 44859)	MIC (A. fumigatus IFM 40808)	MIC (A. flavus IFM 41935)	Compound	Mean survival days (C. albicans IFM 40009)	Survival mice on 14-th day (C. albicans IFM 40009)
0.0156 µg/mL (≈ 0.0427 µM)	4 µg/mL (≈ 10.9 µM)	8 µg/mL (≈ 21.9 µM)	COCCSC(F)(F)C(O)(Cn1cncn1)c1ccc(F)cc1F (stereo not drawn) [Example 15, 2-(2,4-difluorophenyl)-1,1-difluoro-1-(2-methoxyethyl)thio-3-(1H-1,2,4-triazol-1-yl)propan-2-ol]	–	–
0.25 µg/mL (≈ 0.712 µM)	64 µg/mL (≈ 182 µM)	64 µg/mL (≈ 182 µM)	OCCSC(F)(F)C(O)(Cn1cncn1)c1ccc(F)cc1F (stereo not drawn) [Example 18, 2-(2,4-difluorophenyl)-1,1-difluoro-1-(2-hydroxyethyl)thio-3-(1H-1,2,4-triazol-1-yl)propan-2-ol]	–	–
0.0625 µg/mL (≈ 0.157 µM)	16 µg/mL (≈ 40.3 µM)	32 µg/mL (≈ 80.5 µM)	COCCS(=O)(=O)C(F)(F)C(O)(Cn1cncn1)c1ccc(F)cc1F (stereo not drawn) [Example 21, 2-(2,4-difluorophenyl)-1,1-difluoro-1-(2-methoxyethyl)sulfonyl-3-(1H-1,2,4-triazol-1-yl)propan-2-ol]	14.0 days	4/5

Source: US5939448A, “Triazole derivative or salt thereof” (SS Pharmaceutical Co., Ltd., priority 1996, dated 1999)
